Reference: article PMC6979384, “Characterization of the plant homeodomain (PHD) reader family for their histone tail interactions” (Epigenetics & Chromatin, 2020)

Tests used:
Experiment in all cases: Histone peptide microarray
Format in all cases: binding, human
[1] = system: AIRE (PP); conditions: sheet "Array Heatmap"; GST-tagged AIRE (PP); arrays performed twice, total replicate number n = 4
Summary of the method: (§1)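 Recombinant GST-PHD protein at 0.5 μM; 293-member modified histone peptide array; signals averaged from four repeats ± SD.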

[2] = system: BAZ2B; conditions: sheet "Array Heatmap"; GST-tagged BAZ2B; arrays performed twice, total replicate number n = 4
Summary of the method: as §1

[3] = system: BPTF (PB); conditions: sheet "Array Heatmap"; GST-tagged BPTF (PB); arrays performed twice, total replicate number n = 4
Summary of the method: as §1

[4] = system: CHD4 (PPCC); conditions: sheet "Array Heatmap"; GST-tagged CHD4 (PPCC); arrays performed twice, total replicate number n = 4
Summary of the method: as §1

[5] = system: CHD5 (PCC); conditions: sheet "Array Heatmap"; GST-tagged CHD5 (PCC); arrays performed twice, total replicate number n = 4
Summary of the method: as §1

[6] = system: CHD5 (PPCC); conditions: sheet "Array Heatmap"; GST-tagged CHD5 (PPCC); arrays performed twice, total replicate number n = 4
Summary of the method: as §1

[7] = system: DIDO1; conditions: sheet "Array Heatmap"; GST-tagged DIDO1; arrays performed twice, total replicate number n = 4
Summary of the method: as §1

[8] = system: DPF2 (PPC2W2); conditions: sheet "Array Heatmap"; GST-tagged DPF2 (PPC2W2); arrays performed twice, total replicate number n = 4
Summary of the method: as §1

[9] = system: ING1; conditions: sheet "Array Heatmap"; GST-tagged ING1; arrays performed twice, total replicate number n = 4
Summary of the method: as §1

[10] = system: ING2; conditions: sheet "Array Heatmap"; GST-tagged ING2; arrays performed twice, total replicate number n = 4
Summary of the method: as §1

[11] = system: ING3; conditions: sheet "Array Heatmap"; GST-tagged ING3; arrays performed twice, total replicate number n = 4
Summary of the method: as §1

[12] = system: ING4; conditions: sheet "Array Heatmap"; GST-tagged ING4; arrays performed twice, total replicate number n = 4
Summary of the method: as §1

[13] = system: ING5; conditions: sheet "Array Heatmap"; GST-tagged ING5; arrays performed twice, total replicate number n = 4
Summary of the method: as §1

[14] = system: KDM4C (TTP); conditions: sheet "Array Heatmap"; GST-tagged KDM4C (TTP); arrays performed twice, total replicate number n = 4
Summary of the method: as §1

[15] = system: KDM5A (1); conditions: sheet "Array Heatmap"; GST-tagged KDM5A (1); arrays performed twice, total replicate number n = 4
Summary of the method: as §1

[16] = system: KDM5A (3); conditions: sheet "Array Heatmap"; GST-tagged KDM5A (3); arrays performed twice, total replicate number n = 4
Summary of the method: as §1

[17] = system: KDM5B (1); conditions: sheet "Array Heatmap"; GST-tagged KDM5B (1); arrays performed twice, total replicate number n = 4
Summary of the method: as §1

[18] = system: KDM5B (3); conditions: sheet "Array Heatmap"; GST-tagged KDM5B (3); arrays performed twice, total replicate number n = 4
Summary of the method: as §1

[19] = system: KDM7A; conditions: sheet "Array Heatmap"; GST-tagged KDM7A; arrays performed twice, total replicate number n = 4
Summary of the method: as §1

[20] = system: MLL5; conditions: sheet "Array Heatmap"; GST-tagged MLL5; arrays performed twice, total replicate number n = 4
Summary of the method: as §1

[21] = system: MORC3 (CW); conditions: sheet "Array Heatmap"; GST-tagged MORC3 (CW); arrays performed twice, total replicate number n = 4
Summary of the method: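 GST-tagged PHD finger readers were expressed, purified and applied at 0.5 μM to a microarray of 293 synthetic histone peptides carrying single or combinatorial PTMs, using an optimized protocol. Binding signals are averages with standard deviation from 4 replicates.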

[22] = system: PHF13; conditions: sheet "Array Heatmap"; GST-tagged PHF13; arrays performed twice, total replicate number n = 4
Summary of the method: as §1

[23] = system: PHF21A; conditions: sheet "Array Heatmap"; GST-tagged PHF21A; arrays performed twice, total replicate number n = 4
Summary of the method: as §1

[24] = system: PHF23; conditions: sheet "Array Heatmap"; GST-tagged PHF23; arrays performed twice, total replicate number n = 4
Summary of the method: as §1

[25] = system: PHF2; conditions: sheet "Array Heatmap"; GST-tagged PHF2; arrays performed twice, total replicate number n = 4
Summary of the method: as §1

[26] = system: PHF8; conditions: sheet "Array Heatmap"; GST-tagged PHF8; arrays performed twice, total replicate number n = 4
Summary of the method: as §1

[27] = system: PHRF1 (RP); conditions: sheet "Array Heatmap"; GST-tagged PHRF1 (RP); arrays performed twice, total replicate number n = 4
Summary of the method: as §1

[28] = system: RAG2; conditions: sheet "Array Heatmap"; GST-tagged RAG2; arrays performed twice, total replicate number n = 4
Summary of the method: as §1

[29] = system: SP140L; conditions: sheet "Array Heatmap"; GST-tagged SP140L; arrays performed twice, total replicate number n = 4
Summary of the method: as §1

[30] = system: TAF3; conditions: sheet "Array Heatmap"; GST-tagged TAF3; arrays performed twice, total replicate number n = 4
Summary of the method: as §1

[31] = system: TRIM66 (PB); conditions: sheet "Array Heatmap"; GST-tagged TRIM66 (PB); arrays performed twice, total replicate number n = 4
Summary of the method: as §1

Substance	Array Heatmap signal, AIRE (PP) [1]	Array Heatmap signal, BAZ2B [2]	Array Heatmap signal, BPTF (PB) [3]	Array Heatmap signal, CHD4 (PPCC) [4]	Array Heatmap signal, CHD5 (PCC) [5]	Array Heatmap signal, CHD5 (PPCC) [6]	Array Heatmap signal, DIDO1 [7]	Array Heatmap signal, DPF2 (PPC2W2) [8]	Array Heatmap signal, ING1 [9]	Array Heatmap signal, ING2 [10]	Array Heatmap signal, ING3 [11]	Array Heatmap signal, ING4 [12]	Array Heatmap signal, ING5 [13]	Array Heatmap signal, KDM4C (TTP) [14]	Array Heatmap signal, KDM5A (1) [15]	Array Heatmap signal, KDM5A (3) [16]	Array Heatmap signal, KDM5B (1) [17]	Array Heatmap signal, KDM5B (3) [18]	Array Heatmap signal, KDM7A [19]	Array Heatmap signal, MLL5 [20]	other results
H3.3 30-49: H3.3 30-49	0.4614	0.4498	0.3385	0.5572	0.7506	0.5477	0.5964	0.6135	0.4817	0.5868	0.4515	0.4627	0.3551	0.523	0.4724	0.3975	0.6846	0.4643	0.4094	0.5124	Array Heatmap signal, MORC3 (CW) [21]: 0.3401; Array Heatmap signal, PHF13 [22]: 0.586; Array Heatmap signal, PHF21A [23]: 0.447; Array Heatmap signal, PHF23 [24]: 0.5238; Array Heatmap signal, PHF2 [25]: 0.404; Array Heatmap signal, PHF8 [26]: 0.3443; Array Heatmap signal, PHRF1 (RP) [27]: 0.4134; Array Heatmap signal, RAG2 [28]: 0.2343; Array Heatmap signal, SP140L [29]: 0.3561; Array Heatmap signal, TAF3 [30]: 0.2689; Array Heatmap signal, TRIM66 (PB) [31]: 0.5248
H3.3 75-94: H3.3 120-135	0.502	0.4527	0.3448	0.5423	0.7355	0.563	0.6416	0.6426	0.5031	0.5986	0.473	0.4549	0.3621	0.5145	0.468	0.454	0.6676	0.4774	0.3506	0.5079	Array Heatmap signal, MORC3 (CW) [21]: 0.3704; Array Heatmap signal, PHF13 [22]: 0.6071; Array Heatmap signal, PHF21A [23]: 0.449; Array Heatmap signal, PHF23 [24]: 0.5259; Array Heatmap signal, PHF2 [25]: 0.46; Array Heatmap signal, PHF8 [26]: 0.3469; Array Heatmap signal, PHRF1 (RP) [27]: 0.4716; Array Heatmap signal, RAG2 [28]: 0.2477; Array Heatmap signal, SP140L [29]: 0.3784; Array Heatmap signal, TAF3 [30]: 0.2603; Array Heatmap signal, TRIM66 (PB) [31]: 0.5407
